How the values were obtained:
Assay type in all cases: in vivo, human
[1] = Comparative sensory study: sweetened fiber vs mixture of sweetener and fiber vs sweetener alone (Example 8); conditions: 9-point hedonic scale, 10% in water, N=12, FIG. 6
Description: The sensory characteristics of the sweetened fiber of the present disclosure were evaluated against a simple mixture of dietary fiber and stevia extract or stevia extract alone. The preference towards the sweetened fiber of the present disclosure, a mixture of dietary fiber and stevia extract, or stevia extract alone was determined. Any sensory difference between the sweetened fiber of the present disclosure versus a mixture of dietary fiber and stevia extract was evaluated.
Study design: randomized crossover. Twelve adults were recruited for the study. Samples were evaluated for pleasantness using 9-point hedonic scales (Peryam, D. R., Girardot, N. F. (1952). Advanced taste test method. Food Engineering, 24, 58-61, 194.). Unstructured scales such as visual analogue scales (VAS) are also used for the sensory evaluation of food (Baten, W. D. (1946). Organoleptic tests pertaining to apples and pears. Journal of Food Science, 11, 84-94.). The intensity of off-taste, bitterness and sweet aftertaste sweetness were determined using a 10-point scale. […]
Data analysis: The normality of the data was evaluated using D'Agostino & Pearson omnibus normality test. If the data didn't follow a normal distribution, the statistical significance of preference and intensity was assessed with the Kruskal-Wallis test using an alpha criterion of 5%. […]

[2] = Sensory evaluation: sucrose vs sweetened fiber vs stevia extract (Example 9); conditions: score 1 to 100; 10% sucrose, 10% sweet fiber, 0.05% RebM; FIG. 7
Description: A sensory evaluation session was conducted at BioFoodTech, to determine the taste difference between sucrose, the sweetened fiber of the present disclosure and stevia extract solutions. A group of twelve panelists formed a panel for the sensory evaluation. The ranking test measured the overall difference and intensity score for sensory attributes, including the strength of flavor, bitterness, liquorice taste and off-flavor.
A group of experienced panelists from BioFoodTech formed a panel for a sensory evaluation session to determine the quality difference between the sweet product samples.
Three 250 mL samples were prepared (10% solutions of sucrose, 10% the sweetened fiber of the present disclosure and 0.05% solution of Rebaudioside M (RebM). A sensory code consisting of a random 3-digit number was assigned to each sample.
Twelve experienced panelists were divided into two groups. A complete block design was chosen for the sensory evaluation of the […], including a ranking test used to determine the overall difference and intensity scoring for four […] attributes (strength of flavor, bitterness, liquorice taste and off-flavor). The four coded samples were presented to each panelist in a balanced order throughout the evaluation.
In the individual attributes evaluation, the panelists were asked to quantify the difference of specific attributes among the four samples by scoring from 1 to 100 (1 for none and 100 for the strongest, see FIG. 7) to reflect the intensity of the attribute best.

[3] = Sensory testing by a panel of twelve tasters (Example 4); conditions: 10% solution
Description: The taste of the sweetened fiber of the present disclosure prepared according to Example 1 was assessed by an external third party using a panel of tasters. A group of twelve panelists formed a panel for the sensory evaluation. The ranking test was used to measure the overall difference and intensity score for four sensory attributes, flavor, aftertaste, and mouthfeel. Each panelist evaluated all four samples. […] Sample Preparation: Two 250 mL samples were prepared (10% solutions of sucrose (control) and corn sweetened fiber of Example 1-1. A sensory code consisting of a random 3-digit number was assigned to each sample. Taste Session: The sensory evaluation was carried out at BioFoodTech's Sensory Lab. Twelve experienced panelists were divided into two groups. A complete block design was chosen for the sensory evaluation of the four samples, including a ranking test used to determine the overall difference. Statistical Analysis for the Data: For the individual attributes, Analysis of Variance (ANOVA) and the Tukey-Kramer HSD test were used to analyze the difference among sample means of individual attributes at a 5% significance level. For the Ranking test, a Friedman-type statistic was used to determine if there was a statistically significant difference among samples at a 5% significance level. All statistical analyses were done using the JMP®8 (SAS Institute Inc., Cary, NC).

[4] = Double-blinded randomized crossover sensory study: sweetened fiber vs sucrose (Example 10); conditions: 10% solution
Description: The sensory characteristics of an example of the sweetened fiber of the present disclosure were evaluated and compared to those of sucrose. Any preference towards the exemplary sweetened fiber of the present disclosure or sucrose solutions was determined. The sensory acceptance of the exemplary sweetened fiber of the present disclosure and sucrose was evaluated. Study design: double-blinded, randomized crossover. Sixty adults (18-65 years old, 30 males and 30 females) were recruited for the study. […] Samples were evaluated for pleasantness, taste, flavour, sweetness, and mouthfeel using 9-point hedonic scales ([…]. (1952). Advanced taste test method. Food Engineering, 24, 58-61, 194). […] The intensity of sweetness, bitterness, and metallic taste was determined using a 100 mm Visual Analogue Scale (VAS). […] Data analysis: The preference towards either blinded samples of 10% solution of Sucrose or 10% solution of the exemplary sweetened fiber of the present disclosure was determined with a forced paired preference test ([…]., Heymann, H. (2010). Sensory evaluation of food. Springer, New York, NY.). […] If there was an effect of sex (P≤0.05), the data was analyzed separately for males and females. If there was no effect of sex (P>0.05), the pooled data for males and females was analyzed with the Friedman test followed by Dunn's multiple comparisons. […]

SMILES | Pleasantness [1] | Mean score, bitterness [2] | Mean score, liquorice taste [2] | Mean score, off-flavor [2] | Mean score, strength of flavor [2] | Rank mean (ranking taste preference) [3] | RankSum (ranking taste preference) [3] | Mouthfeel ([3]; n = 12) [%] | Off-flavour ([3]; n = 12) [%] | Sweetness ([3]; n = 12) [%] | Taste preference ([3]; n = 12) [%] | Mean acceptance values on hedonic scales [4]
C=C1C[C@@]23CC[C@H]4[C@@](C)(CCC[C@@]4(C)C(=O)O[C@@H]4O[C@H](CO)[C@@H](O)[C@H](O[C@@H]5O[C@H](CO)[C@@H](O)[C@H](O)[C@H]5O)[C@H]4O[C@@H]4O[C@H](CO)[C@@H](O)[C@H](O)[C@H]4O)[C@@H]2CC[C@]1(O[C@@H]1O[C@H](CO)[C@@H](O)[C@H](O[C@@H]2O[C@H](CO)[C@@H](O)[C@H](O)[C@H]2O)[C@H]1O[C@@H]1O[C@H](CO)[C@@H](O)[C@H](O)[C@H]1O)C3 [Rebaudioside M] | no differences | highest | highest | highest | highest |  |  |  |  |  |  | 
OC[C@H]1O[C@@](CO)(O[C@H]2O[C@H](CO)[C@@H](O)[C@H](O)[C@H]2O)[C@@H](O)[C@@H]1O [sucrose] |  |  |  |  |  | 2.58 | 31 | 73 | 0 | 100 | 98 | neutral or above the neutral

Source: patent US20260101916A1, “SWEETENED FIBER AND METHODS THEREOF” (ZeroIN Foods Inc., priority 2022, published 2026)
